From PMC11036874, “In vitro characterization of [^125I]HY-3-24, a selective ligand for the dopamine D3 receptor” (Frontiers in Neuroscience, 2024)
Entries after “also recorded” stand apart in the source; their conditions may differ.

Legend:
human D3R [1] = target: T1, human D3R (Homo sapiens, UniProt P35462); experiment: D3R radioligand binding assay with [125I]IABN; design: expressed in transfected cells; host or cells: HEK293
Experimental: (§1) The dopamine receptor binding assay was performed according to previous studies ([Luedtke et al., 2000]; [Vangveravong et al., 2006]; [Reilly et al., 2017]), and human D2R or D3R or D4 transfected HEK293 cells were used for dopamine receptor binding assay. The cells were grown in Dulbecco’s Modified Eagle Medium including 10% FBS, 0.1% Penn Strep, […] of geneticin (G418) for human D2R or D3R transfected HEK293 cells, and […] of puromycin for human D4 HEK293 cells at 5% CO2, 37°C. The cells were collected by centrifuge (6,000 × g, 10 min), and the supernatant was discarded. Cold homogenization buffer (50 mM Na Hepes, 0.1 mM EDTA, 1 mM DTT, pH 7.4) was added into the pellet and homogenized by a polytron (Brinkmann Instruments, Westbury, NY, United States), and centrifuged at 40,000 × g for 10 min. This process was repeated two more times to get final pellet, and the membranes were then resuspended with HB buffer including 5 mM MgCl2 and stored at −80°C until use.
HY-3-24 was prepared in 10^−5 to 10^−11 M concentration range with assay buffer (50 mM Tris–HCl, 150 mM NaCl, 10 mM EDTA, pH 7.5). Membrane homogenates (5–15 μg) and [^125I]IABN (approximately 0.5 nM) was added into serial dilutions of the compound and incubated at 37°C, for 60 min. Total binding volume was 150 μL, and 20 μM of (+)-butaclamol was used to define non-specific binding. Cold buffer (10 mM Tris–HCl, 150 mM NaCl, pH 7.5) was added into the reaction tube to terminate binding assay, and mixture was quickly filtered through a Schleicher and Schuell No.32 filter (GE Heathcare Bio-Sciences, Pittsburgh, PA, United States). The membrane was washed with cold buffer (three times), and collected filters were counted on a gamma counter (GMI, Minnesota, United States). The results were analyzed by nonlinear regression, and the data were reported mean ± SEM values by three independent experiments.

human D3R [2] = target: T1, human D3R; experiment: β-arrestin recruitment assay for D3R; format: cell-based; design: expressed in transfected cells
Experimental: Chinese hamster ovary CHO-K1 cells (CHO-K1) which were over expressed human D3R were cultured in assaycomplete™ cell culture kit 107 (DiscoverX, Fremont, CA, United States). Cells were seeded at a density of 25,000 cells per well of 96-well plate, and incubated at 5% CO2, 37°C. After 46 h, HY-3-24 was (10^−5 to 10^−11) in phosphate-buffered saline (PBS) was added to the cells. The plates were incubated for 30 min at 5% CO2, 37°C for the agonist binding assay; for the antagonist assay, cells were treated with 30 nM (EC80) of dopamine and then the mixture was incubated for 90 min. PathHunter™ β-arrestin recruitment assay kit (DiscoverX, Fremont, CA, United States) was added to each well, and the plate was incubated for 80 min at RT under the dark condition. The chemiluminescent signal was measured on a PerkinElmer Enspire plate reader (PerkinElmer, Boston, MA, United States). Data were analyzed by Prism followed by non-linear regression.

sigma-2 = target: T2, sigma-2 (Rattus norvegicus, UniProt Q5U3Y7); experiment: Sigma-2 binding assay with [125I]RHM4; conditions: [125I]RHM4, rat liver homogenates
T2 construct: rat liver homogenates (15 μg/100 μL); from tissue; host or cells: rat liver homogenates
T2 sequence (Q5U3Y7 whole entry): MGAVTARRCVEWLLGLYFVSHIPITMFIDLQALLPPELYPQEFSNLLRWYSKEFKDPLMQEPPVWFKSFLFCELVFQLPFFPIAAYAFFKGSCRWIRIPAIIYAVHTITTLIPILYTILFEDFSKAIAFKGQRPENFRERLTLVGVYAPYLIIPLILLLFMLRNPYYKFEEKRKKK
Experimental: For sigma-2 binding assay, HY-3-24 prepared in 10^−5 to 10^−11 M concentration range was mixed with [^125I]RHM4 (50 μL,~200,000 cpm) and rat liver homogenates (15 μg/100 μL). The mixture was vortexed briefly and incubated at room temperature (RT) for 90 min. The [^125I]RHM4-bound membrane was collected through Whatman CF/C filters by 24-well harvester (Brandel Inc., Maryland, United States), and washed with 4 mL of cold buffer. The filters were counted on a gamma counter (PerkinElmer, Massachusetts, United States). Cold RHM4 was used for defining non-specific binding. The Ki value was obtained by PRISM 9.

sigma-1 = target: T3, sigma-1 (Cavia porcellus, UniProt Q60492); experiment: Sigma-1 binding assay with [3H]-(+)-pentazocine; conditions: guinea pig brain homogenates
T3 construct: from tissue; host or cells: guinea pig brain homogenates
T3 sequence (Q60492 whole entry): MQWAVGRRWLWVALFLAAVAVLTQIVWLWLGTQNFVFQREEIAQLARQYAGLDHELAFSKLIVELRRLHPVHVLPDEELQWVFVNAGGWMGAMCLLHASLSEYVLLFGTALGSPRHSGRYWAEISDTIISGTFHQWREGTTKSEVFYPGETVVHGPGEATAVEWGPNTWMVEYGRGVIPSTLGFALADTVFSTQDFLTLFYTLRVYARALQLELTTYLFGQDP
Experimental: The preparation of protein homogenates and sigma binding assay were conducted as described previously ([Luedtke et al., 2000]). For sigma-1 binding assay, [^3H]-(+)-pentazocine (50 μL, ~50,000 cpm) and HY-3-24 (concentrations ranging from 10^−5 to 10^−11 M) were mixed, guinea pig brain homogenates (100 μg/100 μL) were added and the mixture was incubated at 5% CO2, 37°C for 90 min. The assay was terminated by adding cold buffer (10 mM Tris–HCl, 150 mM NaCl, pH 7.5), and the mixture was filtered htrough Whatman CF/C filters (Brandel Inc., Maryland, United States) which were soaked in 1% polyethyleneimine (PEI). The collected filter was washed three times using cold buffer; non-specific binding was determined in the presence of 10 μM of haloperidol. The collected filters were mixed with 3 mL of microscint™20 by and counted overnight (1 min/well) using a beta counter (MicroBeta^2®, PerkinElmer, United Kingdom). The data were analyzed using PRISM 9.

human D4 = target: T4, human D4 (Homo sapiens, UniProt P21917); experiment: D4R radioligand binding assay with [125I]IABN; conditions: human D4 transfected HEK293 cell membranes, mean ± SEM of three experiments
T4 construct: expressed in transfected cells; host or cells: HEK293
T4 sequence (P21917 whole entry): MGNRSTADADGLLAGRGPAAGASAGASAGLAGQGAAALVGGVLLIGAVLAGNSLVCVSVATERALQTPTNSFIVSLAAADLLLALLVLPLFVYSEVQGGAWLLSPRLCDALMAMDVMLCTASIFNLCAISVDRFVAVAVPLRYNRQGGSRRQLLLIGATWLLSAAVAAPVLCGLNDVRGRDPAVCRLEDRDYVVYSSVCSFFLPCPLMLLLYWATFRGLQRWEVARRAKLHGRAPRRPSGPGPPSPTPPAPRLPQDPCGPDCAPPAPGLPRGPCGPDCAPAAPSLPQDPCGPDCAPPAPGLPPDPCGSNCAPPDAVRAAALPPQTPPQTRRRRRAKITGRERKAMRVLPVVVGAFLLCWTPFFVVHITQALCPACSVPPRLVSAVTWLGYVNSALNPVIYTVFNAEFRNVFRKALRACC
Experimental: as §1
HY-3-24 was prepared in 10^−5 to 10^−11 M concentration range with assay buffer (50 mM Tris–HCl, 150 mM NaCl, 10 mM EDTA, pH 7.5). […] The membrane was washed with cold buffer (three times), and collected filters were counted on a gamma counter (GMI, Minnesota, United States). The results were analyzed by nonlinear regression, and the data were reported mean ± SEM values by three independent experiments.

adrenergic alpha2C = target: T5, adrenergic alpha2C (Homo sapiens, UniProt P18825); experiment: PDSP binding screen; conditions: HCl salt
T5 construct: Psychoactive Drug Screening Program (PDSP)
T5 sequence (P18825 whole entry): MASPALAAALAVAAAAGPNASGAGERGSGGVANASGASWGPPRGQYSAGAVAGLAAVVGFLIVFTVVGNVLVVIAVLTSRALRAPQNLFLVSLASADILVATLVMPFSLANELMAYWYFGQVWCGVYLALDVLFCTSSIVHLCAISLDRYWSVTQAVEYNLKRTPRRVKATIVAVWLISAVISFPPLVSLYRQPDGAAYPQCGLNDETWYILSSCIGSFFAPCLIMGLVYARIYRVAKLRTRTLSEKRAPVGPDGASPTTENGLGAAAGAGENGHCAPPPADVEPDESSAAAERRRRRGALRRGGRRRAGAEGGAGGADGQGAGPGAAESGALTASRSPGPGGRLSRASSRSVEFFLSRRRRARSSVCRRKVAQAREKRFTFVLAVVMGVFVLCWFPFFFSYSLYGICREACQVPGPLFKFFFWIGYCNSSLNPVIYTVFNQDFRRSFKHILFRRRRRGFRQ
From the text: (§2) The binding of HY-3-24 to various GPCRs was investigated through comprehensive screening by Psychoactive Drug Screening Program (PDSP) (Supplementary Table S1) ([Besnard et al., 2012]). These GPCRs included major neurotransmitter receptors family (e.g., dopamine, serotonin, histamine, opioid, muscarinic, adrenergic, sigma receptors, ɤ-amino-butyric acid type A, and benzodiazepine receptors) and transporters (e.g., dopamine, norepinephrine, and serotonin transporter).

serotonin transporter = target: T6, serotonin transporter (Homo sapiens, UniProt P31645); experiment: PDSP binding screen; conditions: HCl salt
T6 construct: Psychoactive Drug Screening Program (PDSP)
T6 sequence (P31645 whole entry): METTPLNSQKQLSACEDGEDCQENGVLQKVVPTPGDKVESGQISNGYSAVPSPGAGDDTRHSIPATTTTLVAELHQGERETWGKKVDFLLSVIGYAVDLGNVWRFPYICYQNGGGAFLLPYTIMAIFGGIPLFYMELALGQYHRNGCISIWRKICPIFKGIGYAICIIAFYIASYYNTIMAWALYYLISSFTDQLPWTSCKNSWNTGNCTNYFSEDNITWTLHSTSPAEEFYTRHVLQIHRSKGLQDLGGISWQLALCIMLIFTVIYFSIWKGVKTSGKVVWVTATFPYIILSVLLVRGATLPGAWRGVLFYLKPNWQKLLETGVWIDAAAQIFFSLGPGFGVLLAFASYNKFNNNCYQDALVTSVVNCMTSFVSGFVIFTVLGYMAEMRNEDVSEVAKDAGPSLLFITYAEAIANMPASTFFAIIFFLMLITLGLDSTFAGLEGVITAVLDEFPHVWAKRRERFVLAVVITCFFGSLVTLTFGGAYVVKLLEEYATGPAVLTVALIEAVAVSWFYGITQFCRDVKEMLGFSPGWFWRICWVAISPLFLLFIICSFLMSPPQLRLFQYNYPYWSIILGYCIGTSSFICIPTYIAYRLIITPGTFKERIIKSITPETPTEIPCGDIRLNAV
From the text: as §2

histamine H1 = target: T7, histamine H1 (Homo sapiens, UniProt P35367); experiment: PDSP binding screen; conditions: HCl salt
T7 construct: Psychoactive Drug Screening Program (PDSP)
T7 sequence (P35367 whole entry): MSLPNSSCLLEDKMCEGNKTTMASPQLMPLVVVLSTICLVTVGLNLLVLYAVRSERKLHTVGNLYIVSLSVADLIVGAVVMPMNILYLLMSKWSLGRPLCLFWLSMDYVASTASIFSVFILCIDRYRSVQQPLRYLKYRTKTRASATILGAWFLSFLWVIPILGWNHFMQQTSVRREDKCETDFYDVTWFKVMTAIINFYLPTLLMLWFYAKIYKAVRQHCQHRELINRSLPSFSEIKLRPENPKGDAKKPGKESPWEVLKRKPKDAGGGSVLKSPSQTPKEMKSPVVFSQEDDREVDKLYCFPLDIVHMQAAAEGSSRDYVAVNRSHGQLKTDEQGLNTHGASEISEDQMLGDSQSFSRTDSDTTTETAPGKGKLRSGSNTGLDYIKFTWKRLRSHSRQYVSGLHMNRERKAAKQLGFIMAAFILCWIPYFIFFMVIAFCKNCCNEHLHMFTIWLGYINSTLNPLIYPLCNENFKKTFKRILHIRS
From the text: as §2

[3] = [125I]IABN, human D3R transfected HEK293 cell membranes, mean ± SEM of three experiments

T1 sequence (P35462 whole entry): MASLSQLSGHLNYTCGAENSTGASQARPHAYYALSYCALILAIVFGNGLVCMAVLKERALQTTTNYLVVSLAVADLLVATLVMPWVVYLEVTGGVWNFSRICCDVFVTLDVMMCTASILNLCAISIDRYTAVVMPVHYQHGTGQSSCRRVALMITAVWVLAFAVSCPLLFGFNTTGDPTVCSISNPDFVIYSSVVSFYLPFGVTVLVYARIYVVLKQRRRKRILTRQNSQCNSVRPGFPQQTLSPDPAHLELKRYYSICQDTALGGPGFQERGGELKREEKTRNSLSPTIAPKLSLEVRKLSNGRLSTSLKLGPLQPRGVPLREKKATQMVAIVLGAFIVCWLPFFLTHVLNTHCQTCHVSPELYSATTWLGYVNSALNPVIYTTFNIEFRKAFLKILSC

How did the Ki (human D3R [1]; [3]) turn out when `CCN(CCCNC(=O)c1ccc(-c2ccncc2)cc1)CCNC(=O)c1cc(I)cc(OC)c1OC` [HY-3-24, N-(2-(Ethyl(3-(4-(pyridin-4-yl)benzamido)propyl)amino)ethyl)-5-iodo-2,3-dimethoxybenzamide] was run?
Its Ki is 0.67 ± 0.11 nM.

And the “Ki D3R” value (human D3R [1]; [3])?
Its value is “sub-nM affinity”.

And the “selectivity for D3R vs. D2R” value (human D3R [1]; from Ki values, [125I]IABN)?
The value was ~ 129 fold.

What about the D2/D3 ratio (human D3R [1]; ratio of Ki D2R to Ki D3R) of the same compound?
Its D2/D3 ratio is 129.

And the “EC50 β-arrestin recruitment D3R” value (human D3R [2]; agonist mode, 10^-5 to 10^-11 M, human D3R CHO-K1 cells)?
Its value is “no β-arrestin recruitment; also recorded: N.A (not active)”.

What about the IC50 (human D3R [2]; antagonist mode, vs 30 nM (EC80) dopamine, human D3R CHO-K1 cells) of the same compound?
The IC50 was 1.5 ± 0.58 nM.

And the “functional mode at D3R” value (human D3R [2]; β-arrestin recruitment assay)?
The value was “antagonist”.

What about the “binding to sigma-2 receptors” value (sigma-2) of the same compound?
The value was “did not bind”.

What about the “binding to sigma-2 receptors” value (sigma-2; listed as HY-2-34) of the same compound?
Its value is “low affinity”.

And the “binding to sigma-1 receptors” value (sigma-1)?
Its value is “did not bind”.

And the “binding to sigma-1 receptors” value (sigma-1; listed as HY-2-34)?
Its value is “low affinity”.

What about the Ki (human D4) of the same compound?
The Ki was > 1000 nM.

And the “Ki D4R” value (human D4; listed as HY-2-34)?
Its value is “negligible”.

What about the Ki (adrenergic alpha2C) of the same compound?
The Ki was 1900 nM.

And the Ki (serotonin transporter)?
Its Ki is 677 nM.

What about the Ki (histamine H1) of the same compound?
The Ki was 244 nM.
